Data as given in ChEMBL document CHEMBL5331101, “Synthesis and evaluation of N-sulfonylpiperidine-3-carboxamide derivatives as capsid assembly modulators inhibiting HBV in vitro and in HBV-transgenic mice” (Eur J Med Chem, 2023).
Calls of active or inactive are those of the source. The rule behind the calls is not given here.

Legend:
Hepatitis B virus [1] = experiment: Antiviral activity against HBV infected in human HePAD38 assessed as reduction on HBsAg level at 20 uM by ELISA analysis relative to control; type: functional; design: scale not given: the % may be the effect or the level left
Hepatitis B virus [2] = experiment: Antiviral activity against HBV infected in human HePAD38 assessed as reduction on HBeAg level at 20 uM by ELISA analysis relative to control; type: functional; design: scale not given: the % may be the effect or the level left
Hepatitis B virus [3] = experiment: Antiviral activity against HBV infected in human HePAD38 cells assessed as reduction in intracellular core HBV DNA level at 20 uM incubated for 6 days by qPCR analysis relative to control; type: functional; design: scale not given: the % may be the effect or the level left; conditions: time 6 day
Hepatitis B virus [4] = experiment: Antiviral activity against HBV infected in human HePAD38 cells assessed as decay of viral core protein by agarose gel electrophoresis-based assay; type: functional, organism-based
Hepatitis B virus [5] = experiment: Antiviral activity against HBV infected in human HePAD38 cells assessed as reduction of capsid associated HBV DNA; type: functional, organism-based
[6] = Cytotoxicity against human HepAD38 cells assessed as reduction in cell viability incubated for 6 days by CCK-8 assay; type: functional; conditions: HePAD38, 144 h, time 6 day
[7] = Selectivity index, ratio of CC50 for cytotoxicity against human HepAD38 cells to EC50 for antiviral activity against HBV infected in human HePAD38 cells; type: toxicity, cell-based; conditions: read-out: Ratio CC50/EC50
Hepatitis B virus [8] = experiment: Antiviral activity against HBV infected in human HePAD38 cells assessed as decay of viral capsid protein by agarose gel electrophoresis-based assay; type: functional, organism-based
Hepatitis B virus [9] = experiment: Antiviral activity against HBV infected in human HePAD38 assessed as reduction on HBsAg level at 25 nM by ELISA analysis relative to control; type: functional; design: scale not given: the % may be the effect or the level left
Hepatitis B virus [10] = experiment: Antiviral activity against wild type HBV infected in human HepG2 cells assessed as inhibition of viral replication; type: functional, organism-based
Hepatitis B virus [11] = experiment: Antiviral activity against ETV-resistant HBV infected in human HepG2 cells assessed as inhibition of viral replication; type: functional, organism-based
Hepatitis B virus [12] = experiment: Antiviral activity against HBV infected in human HePAD38 assessed as reduction on HBeAg level at 25 nM by ELISA analysis relative to control; type: functional; design: scale not given: the % may be the effect or the level left
Hepatitis B virus [13] = experiment: Antiviral activity against HBV infected in human HePAD38 cells assessed as reduction in intracellular core HBV DNA level at 25 nM incubated for 6 days by qPCR analysis relative to control; type: functional; design: scale not given: the % may be the effect or the level left; conditions: time 6 day
Hepatitis B virus [14] = experiment: Antiviral activity against HBV infected in human HepAD38 cells assessed as effect on capsid morphology at 20 uM incubated for 3 to 7 days by transmission electron microscopy; type: functional, organism-based; conditions: time 3-7 day
Hepatitis B virus [15] = experiment: Antiviral activity against HBV infected in human HePAD38 assessed as reduction on HBeAg level at 5 uM by ELISA analysis relative to control; type: functional; design: scale not given: the % may be the effect or the level left
Hepatitis B virus [16] = experiment: Antiviral activity against HBV infected in human HePAD38 cells assessed as reduction in intracellular core HBV DNA level at 5 uM incubated for 6 days by qPCR analysis relative to control; type: functional; design: scale not given: the % may be the effect or the level left; conditions: time 6 day
Hepatitis B virus [17] = experiment: Antiviral activity against HBV infected in human HePAD38 assessed as reduction on HBsAg level at 5 uM by ELISA analysis relative to control; type: functional; design: scale not given: the % may be the effect or the level left
Hepatitis B virus [18] = experiment: Antiviral activity against HBV infected in human HePAD38 cells assessed as reduction in intracellular core HBV DNA level at 2 uM incubated for 6 days by qPCR analysis relative to control; type: functional; design: scale not given: the % may be the effect or the level left; conditions: time 6 day
Hepatitis B virus [19] = experiment: Antiviral activity against HBV infected in human HePAD38 assessed as reduction on HBsAg level at 2 uM by ELISA analysis relative to control; type: functional; design: scale not given: the % may be the effect or the level left
Hepatitis B virus [20] = experiment: Antiviral activity against HBV infected in human HePAD38 cells assessed as reduction in capsid formation at 2 uM measured for 6 days by agarose gel electrophoresis-based assay; type: functional, organism-based; conditions: time 6.0 day
[21] = target: Core antigen (Hepatitis B virus) (UniProt Q03732); experiment: Modulation of capsid assembly in HBV infected in human HePAD38 cells assessed as inhibition of viral DNA replication at 5 uM incubated for 3 to 7 days by electron microscopic analysis; type: cell-based; conditions: filed as modulator, time 3-7 day
Sequence of Core antigen (Hepatitis B virus) (Q03732 as listed by the source): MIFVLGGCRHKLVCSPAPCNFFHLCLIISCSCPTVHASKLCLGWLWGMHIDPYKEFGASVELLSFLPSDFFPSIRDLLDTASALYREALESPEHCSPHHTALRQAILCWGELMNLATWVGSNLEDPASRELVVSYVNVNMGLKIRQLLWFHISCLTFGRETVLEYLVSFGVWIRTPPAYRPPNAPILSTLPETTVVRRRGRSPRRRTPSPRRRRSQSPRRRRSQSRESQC

Hepatitis B virus [22] = experiment: Antiviral activity against HBV infected in human HePAD38 assessed as reduction on HBeAg level at 2 uM by ELISA analysis relative to control; type: functional; design: scale not given: the % may be the effect or the level left

Structure (SMILES)	Activity (Hepatitis B virus [1]) [%]	Activity (Hepatitis B virus [2]) [%]	Activity (Hepatitis B virus [3]) [%]	Activity (Hepatitis B virus [4])	EC50 (Hepatitis B virus [5]) [nM]	CC50 [6] [nM]	selectivity ratio [7]	Activity (Hepatitis B virus [8])	further results
COC(=O)c1c(S(=O)(=O)N2CCC[C@H](C(=O)Nc3ccc(F)c(C#N)c3)C2)c(C)n(C)c1C	92.4	61.9	29.7	–	–	–	–	–	–
Cc1c(C#N)c(S(=O)(=O)N2CCC[C@H](C(=O)Nc3ccc(F)c(Cl)c3)C2)c(C)n1C	99.8	36	11.1	inactive	4410	> 100000	> 22.7	inactive	–
COC(=O)c1c(S(=O)(=O)N2CCC[C@H](C(=O)Nc3ccc(F)c(C)c3)C2)c(C)n(C(F)F)c1C	92.8	37.9	9.6	inactive	330	59200	179	inactive	–
CCOC(=O)c1c(S(=O)(=O)N2CCCC(C(=O)Nc3ccc(F)cc3)C2)c(C)n(C)c1C (stereo not drawn)	86.6	62.4	53.4	–	–	–	–	–	–
COC(=O)c1c(S(=O)(=O)N2CCC[C@H](C(=O)Nc3ccc(F)c(C)c3)C2)c(C)n(C)c1C	97.3	54.6	29.8	–	–	–	–	–	–
CCOC(=O)c1c(S(=O)(=O)N2CCCC(C(=O)Nc3ccc(F)c(Cl)c3)C2)c(C)n(C)c1C (stereo not drawn)	94.4	27.1	11.8	Active	–	–	–	Active	–
COC(=O)c1c(S(=O)(=O)N2CCC[C@H](C(=O)Nc3ccc(F)c(C)c3)C2)c(C)n(CC(C)=O)c1C	92.8	49.4	38.2	–	–	–	–	–	–
COC(=O)c1c(C)[nH]c(C)c1S(=O)(=O)N1CCC[C@H](C(=O)Nc2ccc(F)c(C)c2)C1	106.1	73.2	3.7	–	–	–	–	–	–
C=C1[C@H](CO)[C@@H](O)C[C@@H]1n1cnc2c(=O)[nH]c(N)nc21 [ENTECAVIR ANHYDROUS]	–	–	–	–	3	> 500	> 155	–	Activity (Hepatitis B virus [9]): 93.7%; EC50 (Hepatitis B virus [10]): 270 nM; EC50 (Hepatitis B virus [11]): 340 nM; Activity (Hepatitis B virus [12]): 93.4%; Activity (Hepatitis B virus [13]): 3.1%
COC(=O)c1c(S(=O)(=O)N2CCC[C@H](C(=O)Nc3ccc(F)c(Cl)c3)C2)c(C)n(C)c1C	94	67.4	39.7	–	–	–	–	–	–
CCOC(=O)c1c(S(=O)(=O)N2CCCC(C(=O)Nc3ccc(F)cc3F)C2)c(C)n(C)c1C (stereo not drawn)	93.5	54	44.9	–	–	–	–	–	–
CCOC(=O)c1c(S(=O)(=O)N2CCC[C@H](C(=O)Nc3ccc(F)c(C)c3)C2)c(C)n(C2CC2)c1C	91.6	41.6	7.7	inactive	5870	> 100000	> 17	inactive	–
COC(=O)c1c(S(=O)(=O)N2CCC[C@@H](C(=O)Nc3ccc(F)c(C)c3)C2)c(C)n(C)c1C	100.5	62.2	34.9	–	–	–	–	–	–
COC(=O)c1c(S(=O)(=O)N2CCO[C@H](C(=O)Nc3ccc(F)c(C)c3)C2)c(C)n(C)c1C	88.2	59	39	–	–	–	–	–	–
CCOC(=O)c1c(S(=O)(=O)N2CCCC(C(=O)Nc3ccc(F)c(F)c3)C2)c(C)n(C)c1C (stereo not drawn)	96	27.2	11.5	Active	520	> 100000	> 192	Active	–
CCOC(=O)c1c(S(=O)(=O)N2CCCC(C(=O)Nc3ccc(F)c(Cl)c3)C2)c(C)n(CC)c1C (stereo not drawn)	98.2	66	44.2	–	–	–	–	–	–
Cc1cc(NC(=O)c2cccc(S(=O)(=O)N[C@H]3CCOC3)c2)ccc1F	–	–	–	inactive	270	> 100000	> 370	inactive	Activity (Hepatitis B virus [14]): inactive; Activity (Hepatitis B virus [15]): 36.1%; Activity (Hepatitis B virus [16]): 5.8%; Activity (Hepatitis B virus [17]): 97%
COC(=O)C1=C(C)NC(c2ncc(F)cc2F)=N[C@H]1c1ccc(F)cc1Cl	–	–	–	Active	50	> 20000	–	Active	Activity (Hepatitis B virus [18]): 4.9%; Activity (Hepatitis B virus [19]): 88.5%; Activity (Hepatitis B virus [20]): Active; Activity [21]: Active; Activity (Hepatitis B virus [22]): 31.8%
